According to US10611732B2, “HIV replication inhibiting pyrimidines” (Janssen Pharmaceutica NV, priority 2001, dated 2020):

Test system: HIV
Test: microbe, parasite or virus in culture
Conditions: HIV-infected MT-4 cells; dose achieving 50% protection; MTT, OD 540 nm
Method: (§1) A rapid, sensitive and automated assay procedure was used for the in vitro evaluation of anti-HIV agents. An […] T4-cell line, MT-4, which was previously shown (Koyanagi et al., Int. J Cancer, 36, 445-451, 1985) to be highly susceptible to and permissive for HIV infection, served as the target cell line. Inhibition of the HIV-induced cytopathic effect was used as the end point. The viability of both HIV- and mock-infected cells was assessed spectrophotometrically via the in situ reduction of 3-(4,5-dimethylthiazol-2-yl)-2,5-diphenyltetrazolium bromide (MTT). The 50% cytotoxic concentration (CC50 in M) was defined as the concentration of compound that reduced the absorbance of the mock-infected control sample by 50%. The percent protection achieved by the compound in HIV-infected cells was calculated by the following formula:
(§2) [formula] whereby (ODT)HIV is the optical density measured with a given concentration of the test compound in HIV-infected cells; (ODC)HIV is the optical density measured for the control untreated HIV-infected cells; (ODC)MOCK is the optical density measured for the control untreated mock-infected cells; all optical density values were determined at 540 nm. The dose achieving 50% protection according to the above formula was defined as the 50% inhibitory concentration (IC50 in M). The ratio of CC50 to IC50 was defined as the selectivity index (SI).
(§3) Table 6 lists the pIC50 (−log IC50), pCC50 (−log CC50) and pSI (pCC50-pIC50) values for the compounds of formula (I).

In order of rising “pIC50 (−log IC50)” value:
1. Cc1cc(/C=C/c2cccnc2)cc(C)c1Nc1ccnc(Nc2ccc(C#N)cc2)n1 [Compound 146]  8.4
2. Cc1cc(CC(C#N)C#N)cc(C)c1Nc1ccnc(Nc2ccc(C#N)cc2)n1 [Compound 144]  8.6
3. Cc1cc(CCC#N)ccc1Oc1ccnc(Nc2ccc(C#N)cc2)n1 [Compound 234]  8.7

Same assay, conditions: Human immunodeficiency virus 1, MT4, read-out: pIC50 (−log IC50), HIV-infected MT-4 cells (converted); dose achieving 50% protection; MTT, OD 540 nm

In order of rising IC50:
1. Cc1cc(/C=C/C(=O)N(C)C)cc(C)c1Nc1ccnc(Nc2ccc(C#N)cc2)n1 [Compound 112]  0.794 nM
2. Cc1cc(/C=C(/F)C#N)cc(C)c1Oc1ccnc(Nc2ccc(C#N)cc2)n1 [Compound 110]  2.51 nM
3. Cc1cc(/C=C/C(=O)N(C)CCC#N)cc(C)c1Nc1ccnc(Nc2ccc(C#N)cc2)n1 [Compound 114]  2.51 nM
4. Cc1cc(-c2ccc(C#N)o2)cc(C)c1Nc1ccnc(Nc2ccc(C#N)cc2)n1 [Compound 126]  3.98 nM
5. Cc1cc(/C=C(/C#N)C(=O)C(C)(C)C)cc(C)c1Nc1ccnc(Nc2ccc(C#N)cc2)n1 [Compound 106]  20 nM
6. CCOCc1ccc(Oc2ccnc(Nc3ccc(C#N)cc3)n2)c(C)c1 [Compound 105]  63.1 nM

Same assay, conditions: selectivity index, ratio of CC50 to IC50, as log difference

With `CCOCc1ccc(Oc2ccnc(Nc3ccc(C#N)cc3)n2)c(C)c1` [Compound 105] the “pSI (pCC50-pIC50)” value was less than −3.2.
With `Cc1cc(CCC#N)ccc1Oc1ccnc(Nc2ccc(C#N)cc2)n1` [Compound 234] the “pSI (pCC50-pIC50)” value was less than −4.7.

In order of falling “pSI (pCC50-pIC50)” value:
1. Cc1cc(CC(C#N)C#N)cc(C)c1Nc1ccnc(Nc2ccc(C#N)cc2)n1 [Compound 144]  −2.2
2. Cc1cc(/C=C(/C#N)C(=O)C(C)(C)C)cc(C)c1Nc1ccnc(Nc2ccc(C#N)cc2)n1 [Compound 106]  −2.5
3. Cc1cc(/C=C/c2cccnc2)cc(C)c1Nc1ccnc(Nc2ccc(C#N)cc2)n1 [Compound 146]  −3
4. Cc1cc(-c2ccc(C#N)o2)cc(C)c1Nc1ccnc(Nc2ccc(C#N)cc2)n1 [Compound 126]  −3.5
5. Cc1cc(/C=C/C(=O)N(C)CCC#N)cc(C)c1Nc1ccnc(Nc2ccc(C#N)cc2)n1 [Compound 114]  −3.5
6. Cc1cc(/C=C/C(=O)N(C)C)cc(C)c1Nc1ccnc(Nc2ccc(C#N)cc2)n1 [Compound 112]  −4.2
7. Cc1cc(/C=C(/F)C#N)cc(C)c1Oc1ccnc(Nc2ccc(C#N)cc2)n1 [Compound 110]  −4.3

Test system: mock-infected MT-4 cells
Test: cytotoxicity in mock-infected MT-4 cells (MTT)
Conditions: not given
Method: as §1, §2, §3

With `Cc1cc(CCC#N)ccc1Oc1ccnc(Nc2ccc(C#N)cc2)n1` [Compound 234] the “pCC50 (−log CC50)” value was less than 4.0 M.

In the case of `Cc1cc(CC(C#N)C#N)cc(C)c1Nc1ccnc(Nc2ccc(C#N)cc2)n1` [Compound 144], the “pCC50 (−log CC50)” value is reported as 6.4 M.

Same assay, conditions: mock-infected MT-4 cells; concentration reducing absorbance of control by 50%; MTT

In the case of `Cc1cc(/C=C/c2cccnc2)cc(C)c1Nc1ccnc(Nc2ccc(C#N)cc2)n1` [Compound 146], the “pCC50 (−log CC50)” value is reported as 5.4 M.

Test system: not listed separately
Test: cytotoxicity in mock-infected MT-4 cells (MTT)
Conditions: human, mock-infected MT-4 cells
Method: as §1, §2, §3

For `Cc1cc(/C=C(/F)C#N)cc(C)c1Oc1ccnc(Nc2ccc(C#N)cc2)n1` [Compound 110], the CC50 was 50100 nM.

Test system: not given
Test: not given
Conditions: not given

In order of falling melting point:
1. Cc1cc(/C=C(/F)C#N)cc(C)c1Oc1ccnc(Nc2ccc(C#N)cc2)n1 [Compound 110]  254 °C
2. Cc1cc(/C=C\Cl)cc(C)c1Nc1ccnc(Nc2ccc(C#N)cc2)n1  250 °C
3. Cc1cc(C=C(Br)Br)cc(C)c1Nc1ccnc(Nc2ccc(C#N)cc2)n1  223 °C
4. CCCCN(C)C(=O)/C=C/c1cc(C)c(Oc2ccnc(Nc3ccc(C#N)cc3)n2)c(C)c1  212 °C
5. Cc1cc(/C=C(/C#N)C(=O)C(C)(C)C)cc(C)c1Nc1ccnc(Nc2ccc(C#N)cc2)n1 [Compound 106]  193 °C
6. Cc1cc(/C=C/C(=O)N(C)CCC#N)cc(C)c1Nc1ccnc(Nc2ccc(C#N)cc2)n1 [Compound 114]  168 °C
7. Cc1cc(C(=O)CC#N)cc(C)c1Nc1ccnc(Nc2ccc(C#N)cc2)n1  150 °C
8. CCOCc1ccc(Oc2ccnc(Nc3ccc(C#N)cc3)n2)c(C)c1 [Compound 105]  140 °C
9. Cc1ccc(N(C)C)c(C)c1Nc1ccnc(Nc2ccc(C#N)cc2)n1  132 °C
10. Cc1cc(/C=C/c2cccnc2)cc(C)c1Nc1ccnc(Nc2ccc(C#N)cc2)n1  120 °C

`Cc1cc(/C=C/C(=O)N(C)C)cc(C)c1Nc1ccnc(Nc2ccc(C#N)cc2)n1` [Compound 112] showed a melting point greater than 264 °C.
`Cc1cc(-c2ccc(C#N)o2)cc(C)c1Nc1ccnc(Nc2ccc(C#N)cc2)n1` [Compound 126] gave a melting point greater than 260 °C.
